Reference: patent US8911998B2, “Methods for identifying fragile histidine triad (FHIT) interaction and uses thereof” (priority 2007, dated 2014)
Peptide text beside a SMILES is read from it. * marks the point of attachment. Cbz = O=C(OCc1ccccc1)*

Assays:
H1299 D1 cells [1] = assay: Flow cytometry (propidium iodide) of PonA-induced Fhit-expressing cells; assay type: cell-based; details: for sub-G1 population: 48 h
Description: (§8) FIG. 4E, FACS analysis of D1 and E1 cell cycle kinetics at 48 h after oxidative stress treatment. Cells were treated with PonA for 48 h and then with increasing concentrations of H2O2 (0.25 and 0.5 mM) for 4 h. Analysis was at 48 h after H2O2 treatment. All experiments were performed twice in triplicate.
(§9) FIG. 6C and FIG. 6D, the graphs show representative results of flow cytometry analyses of E1 and D1 cells. Cells were treated with PonA for 48 h and then with paclitaxel (50-500 ng/ml) (FIG. 6C) or cisplatin (0.05-0.2 mM) (FIG. 6D). Each data point was measured in triplicate at 24, 48, and 72 h (data shown for 48 h).
(§10) PonA-induced H1299 D1 and E1 cells were treated with 0.25 and 0.5 mM H2O2 or with chemotherapeutic drugs and incubated for varying times, as indicated in the text and figures. For both experiments the cells were collected, washed with phosphate-buffered saline, and resuspended in cold 70% ethanol. For analysis, cells were spun down, washed in phosphate-buffered saline, and suspended in 0.1 mg/ml propidium iodide/Triton X-100 staining solution (0.1% Triton X-100, 0.2 mg/ml DNase-free RNase A) for 30 min at room temperature and analyzed by flow cytometry.

H1299 E1 cells [2] = assay: Flow cytometry (propidium iodide) of PonA-treated Fhit-negative control cells; assay type: cell-based; details: for sub-G1 population: 48 h
Description: as §8, §9, §10

[3] = test system: A549 cells transiently expressing Fhit; assay: Intracellular superoxide (ROS) by hydroethidine FACS, FHIT plasmid-transfected cells; assay type: cell-based, human
Description: (§1) FIG. 4A, fluorescence-activated cell sorter (FACS) analysis for ROS assessment in A549 cells 48 h after transfection with FHIT plasmid, with and without a 5-h H2O2 treatment. Empty vector-transfected cells served as control. Intracellular superoxide was determined according to the fluorescence of ethidium as a result of oxidation of hydroethidine by O2. M2 refers to the fraction of ROS positive cells.
(§2) The inventors herein then investigated determine whether ROS production could be involved in Fhit-mediated apoptosis. […] The inventors examined ROS production in A549 cells, with and without H2O2 treatment, after transient transfection with the FHIT expression plasmid. Intracellular superoxide was assessed by measuring ethidium fluorescence, as a result of oxidation of hydroethydine by superoxide. Intracellular superoxide was measured 5 h after stimulation with increasing concentrations of H2O2.
(§3) Assessment of Intracellular Reactive Oxygen Species (ROS)—Intracellular superoxide was measured through ethidium fluorescence as a result of oxidation by hydroethidine (dihydroethidium-HE; Molecular Probes). MNK74 stably Fhit expressing cells, A549 cells transiently expressing Fhit, and H1299 inducible Fhit expressing cells were treated with 0.5, 1.0, 2.0, and 4.0 mM H2O2 at 37° C.; 4 h later, hydroethidine (10 μM) was added to cells and incubated for 15 min at 37° C. Fluorescence was measured by flow cytometry. Dichlorofluorescein diacetate (DCFH-DA) (Molecular Probes) was used in D1 cells expressing induced Fhit, stressed with H2O2 (0.1 to 1.0 mM), treated with 10 μM DCFH-DA, and incubated for 1 h at 37° C. DCF fluorescence was measured by flow cytometry on a FAC-Scan flow cytometer and fluorescence microscopy.

[4] = test system: A549 cells (empty vector); assay: Intracellular superoxide (ROS) by hydroethidine FACS, empty vector-transfected cells; assay type: cell-based, human
Description: as §1, §2, §3

H1299 D1 cells [5] = assay: ROS assessment by hydroethidine FACS, Fhit-positive cells; assay type: cell-based; details: 5 μM PonA 48 h
Description: (§4) FIG. 4B, FACS analysis for ROS assessment by the fluorescence produced from the oxidation of hydroethidine in D1 and E1 cells; 48 h after PonA treatment, cells were treated for 5 h with 0.5 and 1.0 mM H2O2 and oxidative stress was measured; % positive refers to the fraction of fluorescent cells, indicating ROS. These experiments were repeated three times with similar results.
(§5) A similar experiment was performed with p53 and Fhit negative lung cancer-derived H1299 D1 and E1 clones carrying PonA-inducible FHIT and empty vector expression plasmids, respectively; the cells were treated with 5 μM PonA and at 48 h treated with 0.5 and 1.0 mM H2O2; the % ROS-positive cells was higher in Fhit-positive D1 cells than in E1 control cells (20 versus 3.5% at 0.5 mM H2O2, and 78 versus 25% at 1.0 mM H2O2, respectively) (FIG. 4B).
(§6) Assessment of Intracellular Reactive Oxygen Species (ROS)—Intracellular superoxide was measured through ethidium fluorescence as a result of oxidation by hydroethidine (dihydroethidium-HE; Molecular Probes). […] Fluorescence was measured by flow cytometry. […] DCF fluorescence was measured by flow cytometry on a FAC-Scan flow cytometer and fluorescence microscopy.

H1299 E1 cells [6] = assay: ROS assessment by hydroethidine FACS, control cells; assay type: cell-based; details: 5 μM PonA 48 h
Description: as §4, §5, §6

H1299/D1 cells = assay: Colony formation assay; assay type: cell-based; details: Fhit-expressing cells, 0.25 mM or higher H2O2, 5-h treatment
Description: FIG. 4F, colony formation assay of H1299/D1 and H1299/E1 cells after […] PonA stimulation and a 5-h H2O2 treatment at the indicated concentrations.

H1299 D1 and E1 cells = assay: MTS cell viability assay, D1 compared with E1 cells; details: for sensitivity of D1 cells relative to E1 cells (MTS cell viability): after induction of Fhit expression, paclitaxel 50-500 ng/ml or cisplatin 0.05-0.2 mM, 24 or 48 h
Description: FIG. 4D, MTS cell viability assays were performed on E1 and D1 cells. Cells were treated with PonA for 48 h and then with increasing concentrations of H2O2 (0.125, 0.25, and 0.5 mM) for 4 h. Analysis was at 24 h after H2O2 treatment. Columns report the average of four experiments ±S.E. Each point was measured in quadruplicate and standard deviation calculated; p<0.05 was considered significant.
MTS assays performed on E1 and D1 cells. Cells were treated with PonA for 48 h and then treated with paclitaxel (50-500 ng/ml) (FIG. 6A) or cisplatin (0.05-0.2 mM) (FIG. 6B) for 24 or 48 h.
Chemotherapeutic Drug Treatment—Paclitaxel (Sigma) was dissolved in DMSO as a 10 mmol/liter stock solution and stored at −80° C. Cisplatin (Sigma) was dissolved in water and freshly prepared before use. H1299 D1 and E1 cells were seeded (1×10^4 cells/well) in 96-well culture plates, PonA-induced, and after 24 h treated with paclitaxel (50, 100, and 500 ng/ml) or cisplatin (0.05, 0.1, and 0.2 mM). H1299 D1 and E1 cells PonA-induced were incubated for 24, 48, and 72 h and assessed for viability with an MTS kit (Cell Titer 96® Aqueous MTS kit, Upstate Biotechnology, Lake Placid, N.Y.), as recommended by the manufacturer.

MKN74A116 cells = assay: ROS assessment in gastric cancer cells expressing exogenous Fhit; assay type: cell-based, human; details: Fhit-expressing MKN74 cells, 2 mM H2O2, 5 hr
Description: FIG. 10. TABLE 2, Fhit induces generation of ROS in MKN74 gastric cancer cells. ROS assessment was performed with MKN74A116, a human gastric cancer cell line carrying a p53 mutant allele and expressing exogenous Fhit; Fhit-negative MKN74E4 cells were used as a control. To induce ROS generation, we treated MKN74 cells for 5 hr with 0.5, 1.0 and 2.0 mM H2O2. […] Numbers report the average of four experiments ±S.E.
as §3

PonA-induced D1 cells = assay: Immunoblot of caspase 3 and Parp1 cleavage; assay type: cell-based; details: 48 h; paclitaxel 50 and 100 ng/ml, cisplatin 0.05 and 0.1 mM; compared with untreated cells
Description: FIG. 6E, caspase 3 and Parp1 cleavage: immunoblot analyses, using Fhit, caspase 3, and Parp1 antisera, of total cell lysates from PonA-induced D1 cells after 48 h of treatment with paclitaxel (50 and 100 ng/ml) or cisplatin (0.05 and 0.1 mM). GAPDH served as loading control.
At 24 and 72 h (data not shown) increased sub-G1 populations in D1 compared with E1 cells were also detected. To determine whether the sub-G1 fractions of D1 cells represented apoptotic cells, lysates were prepared from drug-treated cells at 48 h and immunoblot analysis performed for caspase 3 and Parp1 cleavage (FIG. […]).
(§7) Western Blot Analysis—Immunoblot analyses were performed as described (13) using monoclonal anti-pentaHis (Qiagen); rabbit polyclonal anti-Fhit (Zymed Laboratories Inc.); rabbit polyclonal antisera against GFP, Hsp60, Hsp10, and cytochrome c (Santa Cruz Biotechnology); rabbit polyclonal anti-Fdxr (Abcam); monoclonal anti-CoxIV (Molecular Probes); anti-V5 (Sigma); anti-Parp1 (Santa Cruz Biotechnology); and anti-caspase 3 (Cell Signaling). Protein levels were normalized relative to β-actin or/and GAPDH^3 level, detected with appropriate antisera (Santa Cruz Biotechnology).

Fdxr in D1 and E1 cells = assay: Immunoblot of Fdxr protein level after proteasome inhibition; assay type: cell-based; details: 4 h after MG132 treatment (25 μA)
Description: FIG. 5B, immunoblot analysis of Fdxr expression in D1 and E1 cells after a 4-h treatment with 25 μA MG132, a proteasome inhibitor.
as §7

`OO` [H2O2] was tested, and the G2/M arrest (H1299 D1 cells [1]; 48 h after 0.25 mM H2O2) was 45.5%, the G2/M arrest (H1299 D1 cells [1]; 48 h after 0.5 mM H2O2) was 49.5% and the G2/M arrest (H1299 E1 cells [2]; 48 h after 0.25 mM H2O2) was 27.5%. For the same compound, the G2/M arrest (H1299 E1 cells [2]; 48 h after 0.5 mM H2O2) was 29%, the “ROS generation (fraction of ROS positive cells)” value ([3]; FHIT-transfected A549, 0.5 mM H2O2, 5 h) was 16.7% and the “ROS generation (fraction of ROS positive cells)” value ([3]; FHIT-transfected A549, 1.0 mM H2O2, 5 h) was 18.8%. The toxicity to cells ([3]; Fhit-expressing A549, 2 mM H2O2) was “toxic”, the “ROS generation (fraction of ROS positive cells)” value ([4]; empty vector A549, 0.5 mM H2O2, 5 h) was 5.4% and the “ROS generation (fraction of ROS positive cells)” value ([4]; empty vector A549, 1.0 mM H2O2, 5 h) was 7.7%. The toxicity to cells ([4]; non-expressing A549, 2 mM H2O2) was “not to non-expressing cells”, the “% ROS-positive cells” value (H1299 D1 cells [5]; 0.5 mM H2O2) was 20% and the “% ROS-positive cells” value (H1299 D1 cells [5]; 1.0 mM H2O2) was 78%. For the same compound, the “% ROS-positive cells” value (H1299 E1 cells [6]; 0.5 mM H2O2) was 3.5%, the “% ROS-positive cells” value (H1299 E1 cells [6]; 1.0 mM H2O2) was 25% and the colony formation (H1299/D1 cells) was “No colonies were detected”. For the same compound, the “cell viability (MTS cytotoxicity assay)” value (H1299 D1 and E1 cells; 24 h after H2O2 treatment (0.125, 0.25, 0.5 mM, 4 h)) was “reduced cell viability or growth arrest in both E1 and D1 cells, but this phenotype was more pronounced in D1 cells” and the toxicity to cells (MKN74A116 cells) was “toxicity was observed”.

In the case of `N.N.[Cl][Pt][Cl]` [cisplatin, Cisplatin], the sub-G1 population (H1299 D1 cells [1]; cisplatin 0.05 mM) is reported as 5%, the sub-G1 population (H1299 D1 cells [1]; cisplatin 0.1 mM) is reported as 16.2% and the sub-G1 population (H1299 D1 cells [1]; cisplatin 0.2 mM) is reported as 30%. For the same compound, the sub-G1 population (H1299 E1 cells [2]; cisplatin 0.05 mM) was 2.3%, the sub-G1 population (H1299 E1 cells [2]; cisplatin 0.1 mM) was 7% and the sub-G1 population (H1299 E1 cells [2]; cisplatin 0.2 mM) was 14.6%. The “sensitivity of D1 cells relative to E1 cells (MTS cell viability)” value (H1299 D1 and E1 cells) was “more sensitive” and the “activated caspase 3 and related Parp1 cleavage” value (PonA-induced D1 cells) was “observed”.

`CC(=O)O[C@H]1C(=O)[C@@]2(C)[C@H]([C@H](OC(=O)c3ccccc3)[C@]3(O)C[C@H](OC(=O)[C@H](O)[C@@H](NC(=O)c4ccccc4)c4ccccc4)C(C)=C1C3(C)C)[C@]1(OC(C)=O)CO[C@@H]1C[C@@H]2O` [paclitaxel, Paclitaxel] was tested, and the sub-G1 population (H1299 D1 cells [1]; paclitaxel 50 ng/ml) was 9.6%, the sub-G1 population (H1299 D1 cells [1]; paclitaxel 100 ng/ml) was 36% and the sub-G1 population (H1299 D1 cells [1]; paclitaxel 500 ng/ml) was 40%. For the same compound, the sub-G1 population (H1299 E1 cells [2]; paclitaxel 50 ng/ml) was 4%, the sub-G1 population (H1299 E1 cells [2]; paclitaxel 100 ng/ml) was 16.7% and the sub-G1 population (H1299 E1 cells [2]; paclitaxel 500 ng/ml) was 30%. The “sensitivity of D1 cells relative to E1 cells (MTS cell viability)” value (H1299 D1 and E1 cells) was “more sensitive” and the “activated caspase 3 and related Parp1 cleavage” value (PonA-induced D1 cells) was “observed”.

For `CC(C)C[C@@H](C=O)NC(=O)[C@H](CC(C)C)NC(=O)[C@H](CC(C)C)NC(=O)OCc1ccccc1` [MG132] (Cbz-Leu-Leu-Leu-aldehyde), the “Fdxr protein level in D1 cells compared with E1 cells” value (Fdxr in D1 and E1 cells) was “significant increase”.
